Experimental data taken from patent US20180251765A1, “HIGH-THROUGHPUT SPLIT APTAMER SCREENING ASSAY” (BELLBROOK LABS, priority 2015, published 2018).
pEC50, pKd: −log10 of the molar value. Read-outs that look alike come from different tables or passages of the source.

Legend:
[1] = biological target: histone H4 acetylated at lysine 16 (H4K16Ac) (Homo sapiens, UniProt P62805); details: cited from earlier work
[2] = biological target: PRMT1 (Homo sapiens, UniProt Q99873); details: read-out: Km (SAM); plot of velocity vs. SAM, FIG. 5F
PRMT1, sequence (Q99873 whole entry, species assumed): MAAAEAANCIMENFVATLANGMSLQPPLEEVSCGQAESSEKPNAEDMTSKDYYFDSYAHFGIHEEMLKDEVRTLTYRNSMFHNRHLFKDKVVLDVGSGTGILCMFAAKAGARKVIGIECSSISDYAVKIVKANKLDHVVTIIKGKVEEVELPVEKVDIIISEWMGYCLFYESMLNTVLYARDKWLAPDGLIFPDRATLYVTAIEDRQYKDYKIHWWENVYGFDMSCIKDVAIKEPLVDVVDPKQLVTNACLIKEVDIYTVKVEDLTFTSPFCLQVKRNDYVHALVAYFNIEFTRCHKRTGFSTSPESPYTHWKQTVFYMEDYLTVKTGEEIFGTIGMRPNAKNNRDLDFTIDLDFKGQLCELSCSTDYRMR

[3] = system: SAH riboswitch from D. aromatica; details: cited from earlier work
[4] = system: Dar-1 riboswitch; experiment: SAH dependent switch with FP readout, intact riboswitch with fluor-labeled oligo; assay type: binding, D. aromatica; details: for pEC50: FP dose response
Source text: (§1) The native riboswitch signaling mechanism was first leveraged by transducing the conformational switch that occurs upon SAH binding into a fluorescent signal. The goal was to identify an oligonucleotide that would bind to the riboswitch specifically when SAH was present due to the localized conformational disruption it causes (FIG. 3A). Using two well characterized riboswitches, Ref-1 (SEQ ID NO:1) and Dar-1 (SEQ ID NO:4) (Wang et al., 2008, Mol. Cell. 29(6):691-702), an unbiased, empirical approach was taken by testing a panel of 8-10 bp oligos that covered the entire sequence of each riboswitch. The oligos were labeled with fluors at the 5′ end so that binding could be detected by the increase in fluorescence polarization.
A robust, dose dependent FP shift under optimized conditions was observed, which was quite reproducible. However, the affinity of the riboswitch for SAH was much lower than the low nanomolar level expected, and it decreased further over time (see FIG. 3B and inset table for representative data with Dar-1). […] Moreover, the selectivity for SAH vs. SAM was much poorer than expected, less than 50-fold for both Dar-1 and Ref-1 rather than the 1000-fold-plus selectivity reported for the native riboswitch (Wang et al., 2008, Mol. Cell. 29(6):691-702). Despite significant effort to understand and eliminate the unstable nature of the SAH-riboswitch interaction, including confirming that both the riboswitch and the SAH were not degrading over time, a stable, high affinity SAH dependent signal was unable to be obtained. Thus, a split aptamer approach was next explored.

[5] = system: Ref-1 riboswitch; experiment: as above; assay type: binding, R. ferrireducens; details: intact Ref-1
Source text: as §1
A robust, dose dependent FP shift under optimized conditions was observed, which was quite reproducible. However, the affinity of the riboswitch for SAH was much lower than the low nanomolar level expected, and it decreased further over time (see FIG. 3B and inset table for representative data with Dar-1). […] Moreover, the selectivity for SAH vs. SAM was much poorer than expected, less than 50-fold for both Dar-1 and Ref-1 rather than the 1000-fold-plus selectivity reported for the native riboswitch (Wang et al., 2008, Mol. Cell. 29(6):691-702). […]

[6] = system: split Dar-1 riboswitch (P152/P218); experiment: split aptamer SAH FP assay; assay type: binding, D. aromatica
Method: Based on the predicted folding of the Dar-1 sequence and imputed SAH binding interactions (Wang et al., 2008, Mol Cell. 29(6):691-702), two versions of a split Dar-1 riboswitch were tested, comprised of either a 59 or 52 base 5′ element (P159 of SEQ ID NO:6 or P152 of SEQ ID NO:7) and the remaining 18 base 3′ element (P218 of SEQ ID NO:8). […] For simplicity, EC50 values were used as an approximation of ligand dissociation constants, or Kd. […] This is the first example of a split aptamer sensor with FP readout.
Selectivity vs. SAM is a critical parameter, as measurement of HMT enzyme activity requires detection of SAH in an excess of SAM. […] Thus, the selectivity for SAH is at least 200-fold and likely higher; however, measurements are limited by contamination of SAM with SAH. The combination of sensitivity and selectivity is reflected in a standard curve mimicking an HMT enzyme reaction, in which 200 nM SAM was decreased as SAH was added proportionately (FIG. 4D). To quantitatively assess the robustness of the split aptamer FP assay, the standard curve was done with sixteen replicates to allow determination of Z′ values, a commonly used HTS assay statistic that measures that incorporates both dynamic range and data variability (Zhang et al., 1999, J Biomol. Screen. 4(2):67-73). […] The Z′ measured in this Example was 0.56, indicative of a high quality assay.

[7] = system: split SAH aptamer P152/P218, Tb construct; experiment: split aptamer SAH TR-FRET assay, Tb construct; assay type: binding, D. aromatica
Method: The split aptamer SAH detection assay was next formatted for TR-FRET readout. Luminescent lanthanides were attached to P152 of the SAH aptamer via streptavidin-biotin, and organic acceptor fluors were attached to P218 during synthesis. Both Tb and Eu lanthanide chelates (Life Technologies) were tested, as were four different organic fluors with excitation spectra overlapping the lanthanide emission (Alexa 633, Alexa 647, Cy5, and Dylight 650.)
Importantly, the signal was stable for at least 15 h.

[8] = system: split SAH aptamer P152/P218, Eu construct; experiment: split aptamer SAH TR-FRET assay, Eu construct; assay type: binding, D. aromatica
[9] = biological target: SAH riboswitch from R. soanacearum; details: isothermal titration calorimetry; cited from earlier work
[10] = biological target: dimethyl Arg in Histone H3 (H3R8Me2) (Homo sapiens, UniProt P68431); details: cited from earlier work
[11] = system: RNA aptamer for theophylline; details: on the basis of a single methyl group; cited from earlier work

For “H4K16Ac aptamer: 48 base DNA aptamer for histone H4 acetylated at lysine 16 (AGACGTAAGTTAATTGGACTTGGTCGTGTGCGGCACAGCGATTGAAAT; DNA, backbone and methylation of C not given here)”, the “selectivity versus Histone H4 acetylation at K8 or unmodified Histone H4 sequence” value [1] is given as “more than 2,000 fold” and the pKd ([1]; read-out: Kd for target PTM) is given as 7.68.

In the case of `C[S+](CC[C@H](N)C(=O)[O-])C[C@H]1O[C@@H](n2cnc3c(N)ncnc32)[C@H](O)[C@@H]1O` (stereo partly drawn) [SAM, S-adenosylmethionine], the Km [2] is given as 0.014 µM and the “selectivity for SAH versus SAM (affinity for SAM fold lower)” value ([3]; native riboswitch) is given as “at least 1000 fold”.

With `Nc1ncnc2c1ncn2[C@@H]1O[C@H](CSCC[C@H](N)C(=O)O)[C@@H](O)[C@H]1O` [SAH, S-adenosylhomocysteine] the pEC50 ([4]; after 3 h, read-out: EC50 for SAH after 3 h) was 5.72, the pEC50 ([4]; initial reading, read-out: initial EC50 for SAH) was 6.33 and the “selectivity for SAH vs. SAM” value ([4]; intact Dar-1) was “less than 50 fold”. The “selectivity for SAH vs. SAM” value [5] was “less than 50 fold”, the pEC50 ([6]; from FP dose response curves FIG. 4B, used as approximation of Kd) was 7.60 to 7.70 and the “selectivity for SAH vs. SAM” value ([6]; limited by contamination of SAM with SAH) was “at least 200 fold”. For the same compound, the pEC50 [7] was 7.64, the pEC50 [8] was 7.80 and the pKd ([3]; equilibrium binding analysis) was 7.70. The pKd [9] was 7.52.

In the case of “H3R8Me2 aptamer: 50 base RNA aptamer developed for dimethyl Arg in Histone H3 (GAUGGGUCAGCAUGUAGCCAGGCAGGGCCGUGUGAGCUUGUGCUGAUGUG; RNA, backbone and methylation of C not given here)”, the pKd ([10]; read-out: affinity for the target modified peptide) is given as 7.92, the “selectivity for a similar histone PTM (H3K9Me2)” value ([10]; vs H3K9Me2) is given as 8.1 fold and the “selectivity for the unmodified peptide” value ([10]; vs unmodified peptide) is given as 3.5 fold.

In the case of `Cn1c(=O)c2[nH]cnc2n(C)c1=O` [theophylline], the selectivity against caffeine [11] is given as “more than 10^4 fold”.
